From patent publication US11993640B2, “Treating inflammatory lung disease” (United States Government as represented by the Department …, priority 2019, dated 2024)
Entries after “also recorded” stand apart in the source; their conditions may differ. Non-standard residues stand in square brackets, D forms with d. Residues, ends and D or L forms follow the SMILES beside them. *: point of attachment. Phenylacetyl(2,3,4,5,6-F5) = O=C(Cc1c(F)c(F)c(F)c(F)c1F)*; Phe(F5) = N[C@@H](Cc1c(F)c(F)c(F)c(F)c1F)C(=O)O; Phe(4-Cl) = N[C@@H](Cc1ccc(Cl)cc1)C(=O)O; hArg = N=C(N)NCCCC[C@H](N)C(=O)O; 12Ado = NCCCCCCCCCCCC(=O)O; Nle = CCCC[C@H](N)C(=O)O; Abu = CC[C@H](N)C(=O)O

Key:
[1] = target: T1, membrane GHRH-receptors on human anterior pituitary cells (Homo sapiens, UniProt Q02643); assay: Competitive receptor binding, displacement of 125I-[His1,Nle27]-hGH-RH(1-32)NH2 from human pituitary membranes
T1 construct: Human pituitary was purchased from the National Hormone and Peptide Program; tissue National Hormone and Peptide Program; host or cells: human pituitary membrane fractions
T1 sequence (Q02643 23-423): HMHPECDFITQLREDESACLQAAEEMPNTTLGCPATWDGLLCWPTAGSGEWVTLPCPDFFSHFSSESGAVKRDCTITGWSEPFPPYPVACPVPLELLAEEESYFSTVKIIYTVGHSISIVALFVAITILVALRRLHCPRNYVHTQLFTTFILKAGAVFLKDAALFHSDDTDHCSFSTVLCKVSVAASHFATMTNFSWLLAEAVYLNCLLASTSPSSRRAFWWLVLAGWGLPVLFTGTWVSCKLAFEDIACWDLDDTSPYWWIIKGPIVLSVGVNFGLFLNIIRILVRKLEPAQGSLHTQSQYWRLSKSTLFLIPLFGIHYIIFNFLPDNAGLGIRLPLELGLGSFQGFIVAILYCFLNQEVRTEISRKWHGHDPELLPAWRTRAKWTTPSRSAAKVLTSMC
Experimental: Receptor binding affinities in vitro. Preparation of human pituitary membrane fractions and receptor binding of analogs of GH-RH were performed (Halmos G, Rekasi Z, Szoke B, Schally A V. (1993) Receptor 3:87-97). Human pituitary was purchased from the National Hormone and Peptide Program. […] Relative affinities compared to hGH-RH(1-29)NH2 were calculated as the ratio of IC50 (dose causing 50% inhibition of specific binding to receptors) of the tested peptides to the IC50 of hGH-RH(1-29)NH2. The values were calculated from technical duplicate tubes.
Nineteen new AVR analogs of GHRH were tested in the receptor binding assay. Table 6 presents the IC50 values of GHRH antagonists to membrane GHRH-receptors binding on human anterior pituitary cells.

HT-29 xenograft = assay: Xenograft tumor growth in nude mice, colon cancer HT-29; format: in vivo; settings: Panel G, 6 weeks
Experimental: (§1) The peptides' activity was compared with GHRH antagonist MIA-602. All statistical analyzses were performed from comparing GHRA antagonists to non-treated tumor (control).
(§2) Peptides and chemicals. GHRH antagonists MIA-602 and AVR-GHRH antagonists (see Table 2 above) were synthesized by solid phase methods and purified by HPLC. The peptides were dissolved in DMSO and further diluted in 10% 1, 2-propanediol. The final concentration of peptides was 50 µg/ml in 10% 1, 2-propanediol containing 0.1% of DMSO.
(§3) Cell culture. Human cancer cell lines including pancreatic (PANC-1 and CFPAC-1), lung (HCC827 and H460), stomach (NCI-N87), prostate (PC3), brest (MX-1 and HCC-1806), colorectal (HT-29), and ovarian (SK-OV-3 and OVCAR-3) were obtained from the American Type Culture Collection (ATCC) and cultured at 37° C. in a humidified 95% air/5% CO2 atmosphere in the medium recommended by ATCC.
(§4) Xenograft models of human cancers in nude mice. Female athymic (NCr nu/nu) nude mice, 5-to 6-weeks-old, obtained from the Envigo labs (Tampa, FL), were housed in laminar airflow cabinets under pathogen-free conditions with a 12-h light/12-h dark schedule, and were fed autoclaved standard chow and water. To generate mice with xenografted tumors, tumor xenografts were initiated by subcutaneous (s.c.) injection of […] human cancer cells into female nude mice. After about 4 weeks the resulting tumors were dissected and collected after removing necrosis tissues. The tumors were then cut into particles with size of ˜3 mm3 and transplanted s.c. by trocar needle into experimental animals. When tumors grew to the size of 50-60 mm3 (by volume), mice were randomized into groups and treated daily for 4-8 weeks by subcutaneous administration of 5 μg of GHRH antagonists MIA-602 or AVR-compounds (2-10 μg as indicated), or vehicle solutions (0.1% DMSO in 10% 1, 2-propanediol) respectively. Tumor sizes were measured weekly.
(§5) Statistical analysis. One-way ANOVA followed by Bonferroni comparison were performed. Data are expressed as Mean±SEM. To determine statistical significance between animal groups, two-tailed Student's t-test was conducted. Differences were considered significant when p<0.05.
(§6) Results. […] FIG. 1A-N represents in vivo inhibition of tumor growth during the treatment with GHRH antagonist MIA-602 and selected AVR antagonists in nude mice xenografted with various human tumors including pancreatic cancer PANC-1 (FIG. 1A) and CFPAC-1 (FIG. 1I); lung cancer HCC827 (FIGS. 1B, C) and H460 (FIG. 1H); stomach cancer N87 (FIGS. 1D-F); colon cancer HT-29 (FIG. 1G); breast cancer MX-1 and HCC-1806 (FIGS. 1J, K); ovarian cancer SK-OV-3 and OVACAR-3 (FIGS. 1L, M) and prostate cancer PC3 (FIG. 1N). See also Table 5.

PC3 xenograft = assay: Xenograft tumor growth in nude mice, prostate cancer PC3; format: in vivo; settings: Panel N, 8 weeks, 5 μg/day s.c.
Experimental: as §1, §2, §3, §4
(§7) Statistical analysis. One-way ANOVA followed by Bonferroni comparison were performed. Data are expressed as Mean±SEM. […]

rat pituitary cells = assay: Inhibition of GHRH(1-29)NH2-stimulated GH release from rat pituitary cells (ELISA); format: cell-based; settings: analog 20 nM
Experimental: In vitro assessment of the antagonistic activity of GHRH analogs. Rats were decapitated and pituitaries were collected in pre-warmed HBSS (Hanks' Balanced Salt Solution). Tissue was then cut into small pieces and digested in HBSS medium containing 3% BSA, 50 μg/ml gentamycin and 0.5% collagenase for 50 minutes at 37° C. Cells were further dispersed by pipetting and passed through a 100 μm cell strainer with the addition of DMEM containing 50 μg/ml gentamycin, 10% horse serum and 2.5% FBS (growth medium). Cells were harvested at 475×g for 2 minutes, resuspended in fresh growth medium and seeded onto poly-D-lysine-coated 24-well plates (7 pituitaries/plate). Cells were left to recover for 4 days. Growth medium was then replaced with serum-free DMEM for 4 hours and GHRH analogs (at concentration of 20 nM) were added in DMEM containing 0.1% BSA for 30 minutes. Cells were replenished with medium containing the same concentration of the analogs and 1 nM GHRH(1-29)NH2 for 30 minutes. Medium from this step was collected, centrifuged at 800 g for 3 minutes and GH concentration was determined by ELISA (ALPCO Diagnostics, Mill Valley, CA) according to the manufacturer's instruction.

HCC827 xenograft = assay: Xenograft tumor growth in nude mice, lung cancer HCC827; format: in vivo; settings: 5 μg/day s.c., vs control
Experimental: as §1, §2, §3, §4, §5, §6

NCI-N87 xenograft = assay: Xenograft tumor growth in nude mice, stomach cancer N87; format: in vivo; settings: Panel F, 4 weeks, 5 μg/day s.c., vs control
Experimental: as §1, §2, §3
as §4, with “mice were randomized into groups and treated daily for 4-8 weeks by subcutaneous administration” left out
as §5, §6

SK-OV-3 xenograft = assay: Xenograft tumor growth in nude mice, ovarian cancer SK-OV-3; format: in vivo; settings: Panel L, 7 weeks
Experimental: as §1, §2, §3, §4, §5, §6

OVCAR-3 xenograft = assay: Xenograft tumor growth in nude mice, ovarian cancer OVCAR-3; format: in vivo; settings: Panel M, 9 weeks
Experimental: as §1, §2, §3, §4, §7

SMILES	Binding affinity to membrane receptors of human pituitary cells [1]	IC50 ([1]; human anterior pituitary membranes, mean of two to three determinations, read-out: IC50)	Tumor Growth % (HT-29 xenograft; 5 μg/day s.c.)	Tumor Growth % (PC3 xenograft)	Inhibitory effect on the release of GH compared with MIA-602 (rat pituitary cells)	% Inhibition (HCC827 xenograft; Panel B, 7 weeks)	% Inhibition (HCC827 xenograft; Panel C, 8 weeks)	% Inhibition (NCI-N87 xenograft)	Tumor Growth % (HT-29 xenograft; 2 μg/day s.c.)	Tumor Growth % (SK-OV-3 xenograft; 2.5 μg/day s.c.)	Tumor Growth % (SK-OV-3 xenograft; 5 μg/day s.c.)	Tumor Growth % (OVCAR-3 xenograft; 2.5 μg/day s.c.)	Tumor Growth % (OVCAR-3 xenograft; 5 μg/day s.c.)
CCCC[C@H](NC(=O)[C@@H](NC(=O)[C@H](CC(=O)O)NC(=O)[C@H](CCC(N)=O)NC(=O)[C@H](CC(C)C)NC(=O)[C@H](CC(C)C)NC(=O)[C@H](CCCCN)NC(=O)[C@H](CCCNC(=N)N)NC(=O)[C@H](C)NC(=O)[C@H](CO)NC(=O)[C@H](CC(C)C)NC(=O)[C@H](CCC(N)=O)NC(=O)[C@H](CC)NC(=O)[C@H](CC(C)C)NC(=O)[C@@H](NC(=O)[C@H](CCCCN)NC(=O)[C@H](CCCNC(=N)N)NC(=O)[C@H](Cc1c(F)c(F)c(F)c(F)c1F)NC(=O)[C@H](CCCCNC(=N)N)NC(=O)[C@H](C)NC(=O)[C@@H](NC(=O)[C@H](Cc1ccc(Cl)cc1)NC(=O)[C@@H](NC(=O)[C@H](C)NC(=O)[C@H](CC(=O)O)NC(=O)[C@@H](CCCNC(=N)N)NC(=O)[C@H](Cc1ccc(O)cc1)NC(=O)CCCCCCCCCCCNC(=O)Cc1c(F)c(F)c(F)c(F)c1F)[C@@H](C)CC)[C@@H](C)O)C(C)C)[C@@H](C)CC)C(=O)N[C@H](CCCNC(=N)N)C(=O)N[C@@H](CCCCNC(=N)N)C(=O)NCCCCCCCCCCCC(=O)NC [AVR-354] ({Phenylacetyl(2,3,4,5,6-F5)-12Ado}-Y[dR]DAI[Phe(4-Cl)]TA[hArg][Phe(F5)]RKVL[Abu]QLSARKLLQDI[Nle][dR][hArg][12Ado]-NHMe)	higher binding affinity in comparison to MIA-602; also recorded: highest binding affinities	0.14 nM	417.90%	343.6%									
CCCC[C@H](NC(=O)[C@@H](NC(=O)[C@H](CC(=O)O)NC(=O)[C@H](CCC(N)=O)NC(=O)[C@H](CC(C)C)NC(=O)[C@H](CC(C)C)NC(=O)[C@H](CCCCN)NC(=O)[C@H](CCCNC(=N)N)NC(=O)[C@H](C)NC(=O)[C@H](CO)NC(=O)[C@H](CC(C)C)NC(=O)[C@H](CCC(N)=O)NC(=O)[C@H](CC)NC(=O)[C@H](CC(C)C)NC(=O)[C@@H](NC(=O)[C@H](CCCCN)NC(=O)[C@H](CCCNC(=N)N)NC(=O)[C@H](Cc1c(F)c(F)c(F)c(F)c1F)NC(=O)[C@H](CCCCNC(=N)N)NC(=O)[C@H](C)NC(=O)[C@@H](NC(=O)[C@H](Cc1ccc(Cl)cc1)NC(=O)[C@@H](NC(=O)[C@H](C)NC(=O)[C@H](CC(=O)O)NC(=O)[C@@H](CCCNC(=N)N)NC(=O)[C@H](Cc1ccc(O)cc1)NC(=O)CCCCCCCCCCCNC(=O)Cc1c(F)c(F)c(F)c(F)c1F)[C@@H](C)CC)[C@@H](C)O)C(C)C)[C@@H](C)CC)C(=O)N[C@H](CCCNC(=N)N)C(=O)N[C@@H](CCCCNC(=N)N)C(=O)NCCCCCCCCCCCC(N)=O [AVR-353, 5FPhAC-Ada-Tyr-DArg-Asp-Ala-Ile-Cpa-Thr-Ala-Har-5FPhe-Arg-Lys-Val-Leu-Abu-Gln-Leu-Ser-Ala-Arg-Lys-Leu-Leu-Gln-Asp-Ile-Nle-DArg-Har-Ada-NH2] ({Phenylacetyl(2,3,4,5,6-F5)-12Ado}-Y[dR]DAI[Phe(4-Cl)]TA[hArg][Phe(F5)]RKVL[Abu]QLSARKLLQDI[Nle][dR][hArg][12Ado]-NH2)	higher binding affinity in comparison to MIA-602; also recorded: highest binding affinities		494.70%	496.7%	higher inhibitory effects than MIA-602	71.0%	50.0%	65.0%	549.30%	1056.0%	910.7%	357.0%	255.2%
